Results taken from publication PMC8647151, “PLK1‐dependent phosphorylation restrains EBNA2 activity and lymphomagenesis in EBV‐infected mice” (EMBO Reports, 2021).
“And” between values parts separate entries of the source, which are not always exact repeats. Equal values may be shown once. Where a SMILES comes first, the peptide text is derived from it. [ ]: non-standard residue; d: D form. pS = N[C@@H](COP(=O)(O)O)C(=O)O

Tests used:
[1] = molecular target: T1, PLK1 PBD (PLK1 residue 345‐603) (Homo sapiens, UniProt P53350); assay: Isothermal titration calorimetry of EBNA2 heptapeptides with PLK1 PBD; type: binding; conditions: ITC200, 100 µM PBD in the cell titrated with 1 mM peptide, 25°C, triplicates
T1 construct: His6 (N); made in house; host or cells: E. coli Rosetta (DE3)
Method: PLK1 frequently binds to phosphorylated substrates that are primed by cellular kinases like Cyclin B/CDK1. These substrates share a consensus motif [Pro/Phe]‐[Φ/Pro]‐[Φ]‐[Thr/Gln/His/Met]‐Ser‐[pThr/pSer]‐[Pro/X] (Φ represents hydrophobic and X represents any residue) specific for binding to the Polo‐box binding domain (PBD) of PLK1 (Elia et al, [2003a]). […] Mutants involving the respective residues were tested for PLK1 binding by transfection and co‐precipitation. […] To specify the contribution of EBNA2 residue S379 phosphorylation, a heptapeptide (PNTSSPS) and phospho‐heptapeptide (PNTSpSPS) were tested for PBD (PLK1 residue 345‐603) binding by isothermal titration calorimetry (ITC). […] GST‐EBNA2 342–422 expressed and purified from bacterial extracts did hardly pulldown any PLK1 from cellular extracts. […] Also, as shown by transfection, EBNA2 S379A binding to PLK1 was severely impaired (Fig 2H). We conclude that EBNA2 residue S379 is a PLK1 docking site primed by Cyclin B/CDK1 phosphorylation.
Experiments were performed on a ITC200 instrument in triplicates and analyzed with the Malvern software. 100 µM PBD was provided in the cell and titrated with 1 mM concentration of wild type (PNTSSPS) or phosphopeptide (PNTSpSPS) with 25 times 1.5 µl injections at 25°C.

PLK1 = assay: Kinase assay on EBNA2/PLK1 co-precipitates with endogenous PLK1; type: biochemical; conditions: Volasertib 40 nM, [γ-32P] ATP
Method: Monoclonal antibodies specific for His6 (2F12), EBNA2 (R3), glutathione S transferase (6G9), HA‐tag (3F10), BSA (3C5), and LMP1 (1G6) were provided by the antibody facility of the Helmholtz Center Munich. Commercial providers were as follows: GAPDH (Mab374; Merck Millipore), Flag (M2; Sigma‐Aldrich), PLK1 (ab17056; Abcam), GFP (7.1 and 13.1; Roche), and a p300‐specific serum (C20; Santa Cruz). For immunoprecipitations and Western blotting, the equivalent of 1 × 10^7 cells was lysed in 500 µl of lysis buffer (1% NP‐40, 10 mM Tris–HCl pH 7.4, 3% glycerol, 150 mM NaCl, 1 mM EDTA) supplemented with cOmplete protease inhibitor and PhoStop phosphatase inhibitor (Roche) incubated for 30 min at 4°C with constant rolling and for 30 min on ice. The lysate was cleared by centrifugation (16,000 g, 15 min). 1 µg of purified antibodies or 100 µl of hybridoma supernatants was coupled to Protein A or G beads and added to the cleared lysates, incubated for 2 h at 4°C, and washed with lysis buffer, and the protein was eluted with Laemmeli buffer. For GST‐pulldown, antibody‐coated beads were replaced by GST fusion protein‐coated beads. 20 µg protein of total cell lysates or 5 × 10^6 cell equivalents of one immunoprecipitation were loaded per lane. Signals on Western blots were detected by enhanced chemiluminescence (GE Healthcare) and exposed to films or Fusion FX (Vilber Lourmat). […]

[2] = molecular target: polo-like kinase 1 (PLK1) (UniProt P53350); assay: GST pull-down from cell extract; conditions: reference: wild type, Cyclin B/CDK1 treated; sites S379
[3] = molecular target: PLK1 polo-box domain (PBD), PLK1 residue 345-603 (UniProt P53350); assay: ITC; ITC200; 100 µM PBD in the cell titrated with 1 mM peptide, 25 injections of 1.5 µl, 25°C, triplicates
[4] = molecular target: GST-EBNA2 446-474 double-mutant S457A/T465V (Epstein-Barr virus (B95-8)) (UniProt P12978); assay: pull-down; GST-EBNA2 446-474 (wt or phosphorylation mutants) on beads as bait; cellular proteins from DG75 cells; Western blot with GST- and p300-specific antibodies, signals quantified and normalized to wt

**Q.** How did the Kd ([1]; 25 x 1.5 µl injections, read-out: dissociation constant KD) turn out when `C[C@@H](O)[C@H](NC(=O)[C@H](CC(N)=O)NC(=O)[C@@H]1CCCN1)C(=O)N[C@@H](CO)C(=O)N[C@@H](COP(=O)(O)O)C(=O)N1CCC[C@H]1C(=O)N[C@@H](CO)C(=O)O` [PNTSpSPS] (H-PNTS[pS]PS-OH) was run?
**A.** 8.19 µM

**Q.** Which “phosphorylation of EBNA2 wt and candidate phosphorylation mutants in immunoprecipitates” value (PLK1; EBNA2 mutants expressed in DG75 B cells, endogenous PLK1 trapped in precipitates) does the source give for `CC[C@@H]1C(=O)N(C)c2cnc(Nc3ccc(C(=O)N[C@H]4CC[C@H](N5CCN(CC6CC6)CC5)CC4)cc3OC)nc2N1C(C)C` [Volasertib] here?
**A.** prevented phosphorylation of all EBNA2 proteins

**Q.** What about the “EBNA2 phosphorylation in co-precipitates of EBNA2 and endogenous PLK1” value (PLK1; co-precipitates from DG75 Dox HA-EBNA2 cells, 30 min, 37°C) of the same molecule?
**A.** prevented

**Q.** “EBNA2 (EBV nuclear antigen 2) 342-422 (from UniProt P12978) S379A, Cyclin B/CDK1 treated” was tested. Which “binding against the reference” value [2] did it give?
**A.** lost

**Q.** Which stoichiometry N [3] does the source give for EBNA2 phospho-heptapeptide PNTSpSPS here?
**A.** 1

**Q.** “PNTSSPS [unmodified heptapeptide of EBNA2 covering residue S379]” was tested. Which “PBD binding by ITC” value [1] did it give?
**A.** no interaction was detected

**Q.** How did the fold p300 binding relative to wt [4] turn out when “histone acetylase and co-activator p300, endogenous, Q09472 1-2414” was run?
**A.** 8 fold and 9 fold
